# Assay results taken from article PMC6136660 (Steroids, 2018).
# Legend:
# [1] = Clinical safety (treatment-emergent adverse events, MTD, NOAEL), MAD; format: in vivo
# Description: The MAD part of the study was initiated after a review of safety and PK data from SAD cohorts 1 to 6. In the MAD part, 4 cohorts containing 8 subjects each were randomized to receive vamorolone or placebo, in a 3:1 ratio, once daily (QD) for 14 days. The duration of dosing in the MAD part was determined based on the PK data from the SAD part. In each cohort, 3 sentinel subjects were administered vamorolone or placebo, in a 2:1 ratio.
# After completion of all scheduled safety follow-up visits for a given cohort, the SRC reviewed all available PK and safety data (AEs, physical examination findings, ECGs, vital signs, and clinical laboratory tests) in a blinded manner for the completed cohort prior to making a decision to escalate to the next higher dose level.
# Dose escalation in the MAD part was to proceed according to protocol until the MTD was identified. The dose escalation stopping criteria, as listed above in the SAD section, comprised the halting rules for the MAD part. If any of these criteria were met during the 14-day dosing duration in the MAD part, dosing in that cohort was to be halted and no further dose escalation was to occur. If AEs/SAEs occurred more frequently in subjects treated with vamorolone compared to subjects treated with placebo, the SRC was to determine if dose escalation could continue. If dose escalation was terminated, the remaining cohorts could be enrolled to evaluate the safety and PK effects of vamorolone for dose levels between the previously tolerated dose and the dose level at which dose escalation was terminated. Once safety data from additional cohort(s) was assessed, the MTD was defined as the dose level below the dose at which the SRC determined there was an unacceptable risk to subjects.
# [2] = tested on: CTX1 (C-terminal telopeptide of collagen 1); assay: Serum CTX1 (bone resorption biomarker), MAD; format: in vivo, human; conditions: mean±SEM
# Description: All biomarkers were analyzed using standard immunoassays by PRA.
# Pharmacological glucocorticoids cause bone side effects including osteopenia and bone fragility. Bone turnover markers bridged to later bone morbidities include osteocalcin for bone formation, and CTX1 (C-terminal telopeptide of collagen 1) for bone absorption. These biomarkers predict phenotypes of osteopenia and used in clinical trials to monitor bone side effects of treatments. […] (Supplemental Fig. 2). In the vamorolone Phase 1 trial, serum osteocalcin levels were assayed prior to dosing (Day 1 predose), 8 h after initial dose (Day 1), pre-dose on day 14 of daily dosing, 8 h after the day 14 (last) dose, and during recovery days 15 and 17.
# [3] = target: T1, mineralocorticoid receptor (Homo sapiens, UniProt P08235); assay: In vitro reporter assays for steroid hormone receptors, agonist and antagonist modes; format: cell-based; conditions: in vitro reporter assays (unpublished observations)
# T1 sequence (P08235 1-984): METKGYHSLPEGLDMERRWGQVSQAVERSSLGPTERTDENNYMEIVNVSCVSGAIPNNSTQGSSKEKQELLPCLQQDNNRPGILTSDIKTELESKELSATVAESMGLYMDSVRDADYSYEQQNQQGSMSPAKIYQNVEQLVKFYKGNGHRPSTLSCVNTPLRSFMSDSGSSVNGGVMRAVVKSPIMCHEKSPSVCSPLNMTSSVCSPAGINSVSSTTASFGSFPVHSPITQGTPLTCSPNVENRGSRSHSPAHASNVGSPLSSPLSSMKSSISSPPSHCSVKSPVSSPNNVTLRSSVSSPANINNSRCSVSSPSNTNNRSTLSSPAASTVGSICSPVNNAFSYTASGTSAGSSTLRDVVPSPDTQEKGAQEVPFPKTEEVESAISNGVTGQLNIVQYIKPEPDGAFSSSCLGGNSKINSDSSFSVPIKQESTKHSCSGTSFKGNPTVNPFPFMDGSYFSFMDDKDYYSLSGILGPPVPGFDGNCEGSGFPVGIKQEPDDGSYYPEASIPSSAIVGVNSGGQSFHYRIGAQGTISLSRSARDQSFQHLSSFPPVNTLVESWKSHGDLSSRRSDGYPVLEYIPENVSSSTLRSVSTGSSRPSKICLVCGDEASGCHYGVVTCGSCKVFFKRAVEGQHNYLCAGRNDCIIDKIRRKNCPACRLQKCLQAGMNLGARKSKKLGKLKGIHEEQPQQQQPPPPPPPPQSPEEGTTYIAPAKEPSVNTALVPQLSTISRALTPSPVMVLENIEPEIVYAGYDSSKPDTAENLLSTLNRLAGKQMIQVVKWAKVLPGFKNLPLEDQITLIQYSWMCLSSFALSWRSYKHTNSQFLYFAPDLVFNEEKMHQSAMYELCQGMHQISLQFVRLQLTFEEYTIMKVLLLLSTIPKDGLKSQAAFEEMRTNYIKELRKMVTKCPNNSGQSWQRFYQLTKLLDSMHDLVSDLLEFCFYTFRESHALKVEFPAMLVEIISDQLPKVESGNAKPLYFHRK
# From the text: In addition to the dissociation of […] (lost) and transrepression (retained) activities, vamorolone has changed additional sub-activities of traditional glucocorticoids. Cortisol and pharmacological glucocorticoids show high affinity for the mineralocorticoid receptor, similar to its physiological ligand, aldosterone. Glucocorticoids and aldosterone act as agonists for the mineralocorticoid receptor, and high circulating levels of pharmacological glucocorticoids result in salt imbalance and water weight gain (Cushingoid appearance) via the reninangiotensin system. […] Vamorolone can not be metabolized by 11β-Hydroxysteroid dehydrogenase (11BHSD) isoforms, and thus should show greater stability in aldosterone-responsive cells (e.g. not inactivated as cortisol and glucocorticoids are).
# growth and bone = tested on: growth and bone; parameters: method as in PMID 24014378; conditions: 30 mg/kg/day, pre-clinical models; cited from earlier work
structure (smiles),measurement,setting,value
C[C@@H]1C[C@H]2[C@@H]3CCC4=CC(=O)C=C[C@]4(C)C3=CC[C@]2(C)[C@@]1(O)C(=O)CO [vamorolone],subjects experiencing TEAEs,[1]; MAD 1.0 mg/kg,2 subjects
same,subjects experiencing TEAEs,[1]; MAD 3.0 mg/kg,none
same,subjects experiencing TEAEs,[1]; MAD 9.0 mg/kg,none
same,subjects experiencing TEAEs,[1]; MAD 20 mg/kg,2 subjects
same,maximum tolerated dose (MTD),[1]; MAD up to 20 mg/kg/day,not reached
same,severe adverse events,[1]; any SAD or MAD dose group,no severe adverse events
same,NOAEL at 14 days,"[1]; human, in vivo, oral, highest dose tested, 14 days",20 mg/kg/day
same,liver finding thought to be drug related,"[1]; one subject, 20 mg/kg/day MAD cohort, dosing halted",mild elevations of liver enzymes
same,CTX1,"[2]; MAD 1.0 mg/kg, Day 1 (8 h after initial dose)",0.22 ± 0.02 ng/mL
same,CTX1,"[2]; MAD 1.0 mg/kg, Day 1 (predose), baseline",0.50 ± 0.11 ng/mL
same,CTX1,"[2]; MAD 1.0 mg/kg, Day 14 (8 h after last dose)",0.22 ± 0.01 ng/mL
same,CTX1,"[2]; MAD 1.0 mg/kg, Day 14 (predose)",0.58 ± 0.12 ng/mL
same,CTX1,"[2]; MAD 1.0 mg/kg, Day 15 recovery",0.68 ± 0.16 ng/mL
same,CTX1,"[2]; MAD 1.0 mg/kg, Day 17 recovery",0.55 ± 0.09 ng/mL
same,CTX1,"[2]; MAD 3.0 mg/kg, Day 1 (8 h after initial dose)",0.18 ± 0.00 ng/mL
same,CTX1,"[2]; MAD 3.0 mg/kg, Day 1 (predose), baseline",0.31 ± 0.05 ng/mL
same,CTX1,"[2]; MAD 3.0 mg/kg, Day 14 (8 h after last dose)",0.18 ± 0.00 ng/mL
same,CTX1,"[2]; MAD 3.0 mg/kg, Day 14 (predose)",0.48 ± 0.13 ng/mL
same,CTX1,"[2]; MAD 3.0 mg/kg, Day 15 recovery",0.48 ± 0.10 ng/mL
same,CTX1,"[2]; MAD 3.0 mg/kg, Day 17 recovery",0.46 ± 0.12 ng/mL
same,CTX1,"[2]; MAD 9.0 mg/kg, Day 1 (8 h after initial dose)",0.19 ± 0.006 ng/mL
same,CTX1,"[2]; MAD 9.0 mg/kg, Day 1 (predose), baseline",0.59 ± 0.11 ng/mL
same,CTX1,"[2]; MAD 9.0 mg/kg, Day 14 (8 h after last dose)",0.23 ± 0.03 ng/mL
same,CTX1,"[2]; MAD 9.0 mg/kg, Day 14 (predose)",0.73 ± 0.14 ng/mL
same,CTX1,"[2]; MAD 9.0 mg/kg, Day 15 recovery",0.77 ± 0.13 ng/mL
same,CTX1,"[2]; MAD 9.0 mg/kg, Day 17 recovery",0.60 ± 0.10 ng/mL
same,CTX1,"[2]; MAD 20.0 mg/kg, Day 1 (8 h after initial dose)",0.22 ± 0.02 ng/mL
same,CTX1,"[2]; MAD 20.0 mg/kg, Day 1 (predose), baseline",0.70 ± 0.14 ng/mL
same,CTX1,"[2]; MAD 20.0 mg/kg, Day 14 (8 h after last dose)",0.29 ± 0.06 ng/mL
same,CTX1,"[2]; MAD 20.0 mg/kg, Day 14 (predose)",0.88 ± 0.12 ng/mL
same,CTX1,"[2]; MAD 20.0 mg/kg, Day 15 recovery",0.92 ± 0.14 ng/mL
same,CTX1,"[2]; MAD 20.0 mg/kg, Day 17 recovery",0.76 ± 0.10 ng/mL
same,activity at the mineralocorticoid receptor,[3],potent antagonist
same,severe stunting of growth and osteopenia,growth and bone,did not
